One assay addresses BCL-2 (Homo sapiens (Human), UniProt P10415). Briefly: Protein-protein interaction assay BCL-2/Bad BH3 peptide (BCL-2 assay), TR-FRET. The following applies: BCL-2/Bad BH3 peptide TR-FRET; median. Format: binding. For orientation: In TR-FRET formats the signal depends on donor and acceptor labels being close together.
For a further assay, the system named is SUDHL10. Briefly: Induction of cytotoxicity, SUDHL10 (Assay 6). The following applies: Homo sapiens, SU-DHL10, 5 h, read-out: IC50 Cytotox SUDHL10 [M] (median), SUDHL10 cells, 5 h, CellTiter-Glo.
In another assay the test system is MV-4-11. Briefly: Antiproliferation assay MV-4-11 (Assay 7). Type of assay: cell-based. The settings on record: MV-4-11 cells, CellTiter-Glo, single determinations, read-out: IC50 Antiproli MV-4-11. Summed up: (§1)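 Luminescent ATP-based viability (CellTiter-Glo) measured after 72 h of compound treatment at 37 °C. A day 0 plate recorded at time zero served as the starting reference for proliferation.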
In general terms: In ATP-based viability assays light output follows the ATP content of the culture.

Assay [1] relates to SUDHL5. As to the kind of experiment: Induction of cytotoxicity, SUDHL5 (Assay 6). The following applies: Homo sapiens, SU-DHL-5, 5 h, read-out: IC50 Cytotox SUDHL5 [M] (median), SUDHL5 cells, 5 h, CellTiter-Glo.
For a further assay, the system named is A2780. As to the kind of experiment: Antiproliferation assay A2780 (Assay 7). Type of assay: cell-based. The following applies: Homo sapiens, A2780, 72 h, A2780 cells, CellTiter-Glo, single determinations, read-out: IC50 Antiproli A2780. Summed up:
as §1

Assay [2] has as its system SUDHL5. As to the kind of experiment: Induction of caspase-3/7 activity, SUDHL5 (Assay 4). Format: cell-based. The settings on record: Homo sapiens, SU-DHL-5, 3 h, SUDHL5 cells, Caspase-Glo 3/7, median. Summed up: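 DLBCL lines treated with compounds for 3 h at 37° C.; caspase-3/7 activity read by Caspase-Glo 3/7 luminescence. Medium-only background subtracted; EC50 fitted with bottom fixed at 1 and top set to reference compound's maximal induction.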

Molecules are shown by their SMILES. “And” between values parts separate entries of the source, which are not always exact repeats. Equal entries are not always repeated. Where two headings read alike, the source gives them in different places.

Sequence of BCL-2 (P10415 1-211): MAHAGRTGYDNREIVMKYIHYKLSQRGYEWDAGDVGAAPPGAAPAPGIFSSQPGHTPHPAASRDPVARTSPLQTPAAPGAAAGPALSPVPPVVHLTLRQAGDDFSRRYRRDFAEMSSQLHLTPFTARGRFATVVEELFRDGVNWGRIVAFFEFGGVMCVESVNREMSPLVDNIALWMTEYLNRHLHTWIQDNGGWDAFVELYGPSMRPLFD

Take `Cc1nn(C)c2c1-c1c(F)ccc3c(CCCOc4ccc(F)c5ccccc45)c(C(=O)O)n(c13)CCCCOC2` (racemic) [Example 33, (rac)-13-fluoro-1-(3-((4-fluoronaphthalen-1-yl)oxy)propyl)-10,12-dimethyl-4,5,6,7,9,10-hexahydropyrazolo[4′,3′:9,10][1]oxa[6]azacycloundecino[8,7,6-hi]indole-2-carboxylic acid]: the IC50 against BCL-2 was greater than 20 µM; in the assay with SUDHL10 it was 8.4e-06 M; with MV-4-11 (Homo sapiens, MV4-11, 72 h), 11.2 µM; with SUDHL5 [1], 3.5e-06 M; in the assay with A2780, 23.3 µM. The EC50 with SUDHL5 [2] was determined as 2.9 µM.
Regarding `Cc1nn(C)c2c1-c1c(F)ccc3c(CCCOc4cccc5c4CCCC5)c(C(=O)O)n(c13)CCCCOC2` (racemic) [Example 34, (rac)-13-fluoro-10,12-dimethyl-1-(3-((5,6,7,8-tetrahydronaphthalen-1-yl)oxy)propyl)-4,5,6,7,9,10-hexahydropyrazolo[4′,3′:9,10][1]oxa[6]azacycloundecino[8,7,6-hi]indole-2-carboxylic acid], the IC50 against BCL-2 is greater than 20 µM; in the assay on SUDHL10, 4.2e-06 M; in the assay on MV-4-11 (Homo sapiens, MV4-11, 72 h), 11.6 µM; in the assay on MV-4-11 (72 h), 12.3 µM; in the assay on SUDHL5 [1] it was 2.6e-06 M; in the assay with A2780, 20.9 µM. Moreover, in the assay on SUDHL5 [2], the 50% effective concentration (EC50) was found to be 1.8 µM.
`Cc1nn(C)c2c1-c1c(F)ccc3c(CCCOc4cccc5c4CCC5)c(C(=O)O)n(c13)CCCCOC2` (racemic) [Example 35, (rac)-1-(3-((2,3-dihydro-1H-inden-4-yl)oxy)propyl)-13-fluoro-10,12-dimethyl-4,5,6,7,9,10-hexahydropyrazolo[4′,3′:9,10][1]oxa[6]azacycloundecino[8,7,6-hi]indole-2-carboxylic acid]: the half-inhibitory concentration (IC50) at BCL-2 was greater than 20 µM; in the assay on SUDHL10 it was 1.5e-05 M; in the assay on MV-4-11 (Homo sapiens, MV4-11, 72 h), 12.4 µM; with SUDHL5 [1], 7.1e-06 M; in the assay with A2780, 15 µM. In the assay on SUDHL5 [2], this molecule displayed a half-maximal effective concentration (EC50) of 6.2 µM.
Regarding `Cc1cc(OCCCc2c(C(=O)O)n3c4c(c(F)ccc24)-c2c(C)nn(C)c2COCCCC3)cc(C)c1Cl` (racemic) [Example 36, (rac)-1-(3-(4-chloro-3,5-dimethylphenoxy)propyl)-13-fluoro-10,12-dimethyl-4,5,6,7,9,10-hexahydropyrazolo[4′,3′:9,10][1]oxa[6]azacycloundecino[8,7,6-hi]indole-2-carboxylic acid], the IC50 was greater than 20 µM against BCL-2; 9e-06 M in the assay on SUDHL10; 16.4 µM with MV-4-11 (Homo sapiens, MV4-11, 72 h); 4.3e-06 M with SUDHL5 [1]; 29.5 µM with A2780. Besides, the 50% effective concentration (EC50) in the assay on SUDHL5 [2] is 3.5 µM.
Turning to `CCc1nn(C)c2c1-c1c(F)ccc3c(CCCOc4cccc5ccccc45)c(C(=O)O)n(c13)CCCCOC2` (racemic) [Example 37, (rac)-12-ethyl-13-fluoro-10-methyl-1-(3-(naphthalen-1-yloxy)propyl)-4,5,6,7,9,10-hexahydro-pyrazolo[4′,3′:9,10][1]oxa[6]azacycloundecino[8,7,6-hi]indole-2-carboxylic acid], the IC50 at BCL-2 was greater than 20 µM; with SUDHL10 it was 4.8e-06 M; in the assay on MV-4-11 (Homo sapiens, MV4-11, 72 h) it was 8.4 µM; with MV-4-11 (72 h) it was 6.8 µM and 7.54 µM; in the assay with SUDHL5 [1], 2.1e-06 M; in the assay with A2780, greater than 33 µM. The concentration giving a half-maximal response (EC50) with SUDHL5 [2] amounted to 1.7 µM.
Turning to `CCc1nn(C)c2c1-c1c(F)ccc3c(CCCOc4cccc5c4CCC5)c(C(=O)O)n(c13)CCCCOC2` (racemic) [Example 45, (rac)-1-(3-((2,3-dihydro-1H-inden-4-yl)oxy)propyl)-12-ethyl-13-fluoro-10-methyl-4,5,6,7,9,10-hexahydropyrazolo[4′,3′:9,10][1]oxa[6]azacycloundecino[8,7,6-hi]indole-2-carboxylic acid], the IC50 against BCL-2 was greater than 20 µM; with SUDHL10 it was 3.4e-06 M; with MV-4-11 (Homo sapiens, MV4-11, 72 h), 6.2 µM; with MV-4-11 (72 h), 6.56 µM; with SUDHL5 [1], 1.9e-06 M; in the assay on A2780 it was 28.2 µM. In the assay on SUDHL5 [2], this molecule gave a half-maximal effective concentration (EC50) of 1.4 µM.

The term IC50 denotes the midpoint of a concentration-inhibition curve. What is called EC50 is the concentration that produces a half-maximal response. Read a low EC50 as higher potency in that assay.

(Values after patent US11286263B2, “Macrocyclic fluorine substituted indole derivatives” (The Broad Institute, Inc., priority 2017, dated 2022).)
